# Read-outs that look alike come from different tables or passages of the source.
# Legend:
# δ-opioid receptor = δ-opioid receptor (Rattus norvegicus, UniProt P33533); assay: Rat brain δ-opioid receptor binding assay ([3H]DPDPE)
# μ-opioid receptor = μ-opioid receptor (Rattus norvegicus, UniProt P33535); assay: Rat brain μ-opioid receptor binding assay ([3H]DAMGO)
# [1] = rat forebrain preparation, [3H]DPDPE, 25° C., read-out: δ-Opioid Receptor Binding (Ki nM)
# [2] = rat forebrain preparation, [3H]DAMGO, 25° C., read-out: μ-Opioid Receptor Binding (Ki nM)
# δ-opioid receptor, sequence (P33533 whole entry): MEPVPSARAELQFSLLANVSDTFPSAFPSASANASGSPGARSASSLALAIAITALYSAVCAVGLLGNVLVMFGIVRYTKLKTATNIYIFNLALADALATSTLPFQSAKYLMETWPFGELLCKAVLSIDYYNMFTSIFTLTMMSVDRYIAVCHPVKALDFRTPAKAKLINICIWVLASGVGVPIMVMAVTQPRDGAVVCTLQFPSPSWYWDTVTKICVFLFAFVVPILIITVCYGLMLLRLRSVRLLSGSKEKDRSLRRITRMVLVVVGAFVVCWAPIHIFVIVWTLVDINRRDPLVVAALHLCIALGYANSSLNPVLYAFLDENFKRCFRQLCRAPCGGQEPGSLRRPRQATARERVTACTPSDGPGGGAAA
# μ-opioid receptor, sequence (P33535 whole entry): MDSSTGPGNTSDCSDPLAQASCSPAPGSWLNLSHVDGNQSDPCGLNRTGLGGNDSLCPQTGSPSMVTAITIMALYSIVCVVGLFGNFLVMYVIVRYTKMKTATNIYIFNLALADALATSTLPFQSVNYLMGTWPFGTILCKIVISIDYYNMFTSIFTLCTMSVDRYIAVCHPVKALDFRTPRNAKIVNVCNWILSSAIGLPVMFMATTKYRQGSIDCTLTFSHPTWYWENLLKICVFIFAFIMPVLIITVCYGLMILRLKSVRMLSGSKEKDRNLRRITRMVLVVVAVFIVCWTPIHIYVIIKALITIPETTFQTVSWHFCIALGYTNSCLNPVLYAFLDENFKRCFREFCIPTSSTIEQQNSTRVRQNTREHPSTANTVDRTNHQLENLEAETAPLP
Compound,Ki (δ-opioid receptor),Ki (μ-opioid receptor),Ki (δ-opioid receptor; [1]),Ki (μ-opioid receptor; [2])
"CCN(CC)C(=O)c1ccc(C(=Nc2ccccc2Cl)N2CCCN(CCc3ccccc3)CC2)cc1 [Compound 57, 4-[[(2-chlorophenyl)imino][hexahydro-4-(2-phenylethyl)-1H-1,4-diazepin-1-yl]methyl]-N,N-diethyl-benzamide]",29.6 nM,618 nM,–,–
"COC(=O)c1ccc(C(=Nc2ccccc2)N2CCN(CCc3cccs3)CC2)cc1 [Compound 42, 4-[(phenylimino)[4-[2-(2-thienyl)ethyl]-1-piperazinyl]methyl]-benzoic acid methyl ester]",–,–,> 10000 nM,> 10000 nM
"CCN(CC)C(=O)c1ccc(C(=Nc2ccccc2)N2CCN(CCc3cccs3)CC2)cc1 [Compound 22, N,N-diethyl-4-[(phenylimino)[4-[2-(2-thienyl)ethyl]-1-piperazinyl]methyl]-benzamide]",764 nM,> 10000 nM,–,–
"CCN(CC)C(=O)c1ccc(C(=Nc2ccccc2C(F)(F)F)N2CCN(CCOC)CC2)cc1 [Compound 26, N,N-diethyl-4-[[4-(2-methoxyethyl)-1-piperazinyl][[2-(trifluoromethyl)phenyl]imino]methyl]-benzamide]",22.9 nM,2960 nM,–,–
"COC(=O)c1ccc(C(=Nc2ccccc2)N2CCN(Cc3ccccc3)CC2)cc1 [Compound 37, 4-[(phenylimino)[4-(phenylmethyl)-1-piperazinyl]methyl]-benzoic acid methyl ester]",–,–,1690 nM,> 10000 nM
"CCN(CC)C(=O)c1ccc(C(=Nc2ccc(Cl)cc2)N2CCN(Cc3ccccc3)CC2)cc1 [Compound 28, 4-[[(4-chlorophenyl)imino][4-(phenylmethyl)-1-piperazinyl]methyl]-N,N-diethyl-benzamide]",142 nM,> 10000 nM,–,–
4-[(4-ethenyl-1-piperazinyl)(phenylimino)methyl]-benzoic acid methyl ester [Compound 36],–,–,954 nM,> 10000 nM
"CCN(CC)C(=O)c1ccc(C(=Nc2ccccc2)N2CCN(Cc3ccccc3)CC2)cc1 [Compound 17, N,N-diethyl-4-[(phenylimino)[4-(phenylmethyl)-1-piperazinyl]methyl]-benzamide]",212 nM,> 10000 nM,–,–
"COC(=O)c1ccc(C(=Nc2ccccc2)N2CCCN(CCc3ccccc3)CC2)cc1 [Compound 58, 4-[[hexahydro-4-(2-phenylethyl)-1H-1,4-diazepin-1-yl](phenylimino)methyl]-benzoic acid methyl ester]",–,–,820 nM,232 nM
"CCN(CC)C(=O)c1ccc(C(=Nc2ccccc2Cl)N2CCN(CCOC)CC2)cc1 [Compound 27, 4-[[(2-chlorophenyl)imino][4-(2-methoxyethyl)-1-piperazinyl]methyl]-N,N-diethyl-benzamide]",53.5 nM,> 10000 nM,–,–
"COC(=O)c1ccc(C(=Nc2ccccc2Cl)N2CCN(CCc3ccccc3)CC2)cc1 [Compound 40, 4-[[(2-chlorophenyl)imino][4-(2-phenylethyl)-1-piperazinyl]methyl]-benzoic acid methyl ester]",–,–,> 10000 nM,> 10000 nM
"4-[[(2-chlorophenyl)imino](4-propyl-1-piperazinyl)methyl]-N,N-diethyl-benzamide [Compound 18]",–,–,157 nM,> 10000 nM
"COCCN1CCN(C(=Nc2ccccc2Cl)c2ccc(C(=O)OC)cc2)CC1 [Compound 45, 4-[[(2-chlorophenyl)imino][4-(2-methoxyethyl)-1-piperazinyl]methyl]-benzoic acid methyl ester]",–,–,299 nM,> 10000 nM
3-[(phenylimino)[4-(2-propenyl)-1-piperazinyl]methyl]-benzoic acid methyl ester [Compound 55],–,–,1170 nM,> 10000 nM
"COC(=O)c1ccc(C(=Nc2ccccc2Cl)N2CCCN(CCc3ccccc3)CC2)cc1 [Compound 59, 4-[[(2-chlorophenyl)imino][hexahydro-4-(2-phenylethyl)-1H-1,4-diazepin-1-yl]methyl]-benzoic acid methyl ester]",–,–,101 nM,197 nM
"COC(=O)c1ccc(C(=Nc2ccccc2C(F)(F)F)N2CCN(CCc3ccccc3)CC2)cc1 [Compound 41, 4-[[4-(2-phenylethyl)-1-piperazinyl][[2-(trifluoromethyl)phenyl]imino]methyl]-benzoic acid methyl ester]",–,–,> 10000 nM,> 10000 nM

Compound,Ki (δ-opioid receptor),Ki (μ-opioid receptor),Ki (δ-opioid receptor; [1]),Ki (μ-opioid receptor; [2])
"C=CCN1CCN(C(=Nc2ccccc2Cl)c2cccc(C(=O)N(CC)CC)c2)CC1 [Compound 52, 3-[[(2-chlorophenyl)imino][4-(2-propenyl)-1-piperazinyl]methyl]-N,N-diethyl-benzamide]",487 nM,600 nM,–,–
"C=CCN1CCN(C(=Nc2ccccc2)c2cccc(C(=O)N(CC)CC)c2)CC1 [Compound 53, N,N-diethyl-3-[(phenylimino)[4-(2-propenyl)-1-piperazinyl]methyl]-benzamide]",–,–,7030 nM,> 10000 nM
"CCN(CC)C(=O)c1ccc(C(=Nc2ccccc2Cl)N2CCN(CCc3ccccc3)CC2)cc1 [Compound 25, 4-[[(2-chlorophenyl)imino][4-(2-phenylethyl)-1-piperazinyl]methyl]-N,N-diethyl-benzamide]",> 10000 nM,> 10000 nM,–,–
"COC(=O)c1ccc(C(=Nc2ccccc2Cl)N2CCN(CCc3cccs3)CC2)cc1 [Compound 43, 4-[[(2-chlorophenyl)imino][4-[2-(2-thienyl)ethyl]-1-piperazinyl]methyl]-benzoic acid methyl ester]",–,–,> 10000 nM,> 10000 nM
"CCN1CCN(C(=Nc2ccccc2F)c2ccc(C(=O)OC)cc2)CC1 [Compound 33, 4-[(4-ethyl-1-piperazinyl)[(3-fluorophenyl)imino]methyl]-benzoic acid methyl ester]",–,–,230 nM,> 10000 nM
"COC(=O)c1ccc(C(=Nc2ccc(Cl)cc2)N2CCN(Cc3ccccc3)CC2)cc1 [Compound 38, 4-[[(4-chlorophenyl)imino][4-(phenylmethyl)-1-piperazinyl]methyl]-benzoic acid methyl ester]",–,–,246 nM,> 10000 nM
"COCCN1CCN(C(=Nc2ccccc2C(F)(F)F)c2ccc(C(=O)OC)cc2)CC1 [Compound 44, 4-[[4-(2-methoxyethyl)-1-piperazinyl][[2-(trifluoromethyl)phenyl]imino]methyl]-benzoic acid methyl ester]",–,–,82.6 nM,9150 nM
"C=CCN1CCN(C(=Nc2ccccc2)c2ccc(C(=O)N(CC)CC)cc2)CC1 [Compound 15, N,N-diethyl-4-[(phenylimino)[4-(2-propenyl)-1-piperazinyl]methyl]-benzamide]",859 nM,> 10000 nM,–,–
"CCN(CC)C(=O)c1ccc(C(=Nc2ccccc2)N2CCCN(CCc3ccccc3)CC2)cc1 [Compound 56, N,N-diethyl-4-[[hexahydro-4-(2-phenylethyl)-1H-1,4-diazepin-1-yl](phenylimino)methyl]-benzamide]",396 nM,–,–,–
"COC(=O)c1ccc(C(=Nc2ccccc2Cl)N2CCN(Cc3ccccc3)CC2)cc1 [Compound 39, 4-[[(2-chlorophenyl)imino][4-(phenylmethyl)-1-piperazinyl]methyl]-benzoic acid methyl ester]",–,–,2010 nM,> 10000 nM
"COC(=O)c1ccc(C(=Nc2ccccc2Cl)N2CCN(c3ccccc3)CC2)cc1 [Compound 35, 4-[[(2-chlorophenyl)imino](4-phenyl-1-piperazinyl)methyl]-benzoic acid methyl ester]",–,–,7640 nM,> 10000 nM
"CCN(CC)C(=O)c1ccc(C(=Nc2ccccc2C(F)(F)F)N2CCN(Cc3ccccc3)CC2)cc1 [Compound 23, N,N-diethyl-4-[[4-(phenylmethyl)-1-piperazinyl][[2-(trifluoromethyl)phenyl]imino]methyl]-benzamide]",1.22 nM,1200 nM,–,–
"CCN(CC)C(=O)c1ccc(C(=Nc2ccccc2C(F)(F)F)N2CCN(CCc3ccccc3)CC2)cc1 [Compound 24, N,N-diethyl-4-[[4-(2-phenylethyl)-1-piperazinyl][[2-(trifluoromethyl)phenyl]imino]methyl]-benzamide]",545 nM,1000 nM,–,–
"C=CCN1CCN(C(=Nc2ccccc2Cl)c2cccc(C(=O)OC)c2)CC1 [Compound 54, 3-[[(2-chlorophenyl)imino][4-(2-propenyl)-1-piperazinyl]methyl]-benzoic acid methyl ester]",–,–,2150 nM,1610 nM
"C=CCN1C[C@H](C)N(/C(=N/c2ccccc2)c2ccc(C(=O)OC)cc2)C[C@H]1C [Compound 51, 4-[(E)-[(2S,5R)-2,5-dimethyl-4-(2-propenyl)piperazinyl](phenylimino)methyl]-benzoic acid methyl ester]",–,–,405 nM,> 10000 nM

# From patent US6887876B2, “Benzamidine derivatives” (Ortho-McNeil Pharmaceutical, Inc., priority 2000, dated 2005)
